Results published in US20140005165A1, “SUBSTITUTED 3-AZABICYCLO[3.1.0]HEXANE DERIVATIVES USEFUL AS CCR2 ANTAGONISTS” (priority 2011, published 2014).
pIC50: −log10 of the molar value.

Each compound was assayed against T1, human CCR2 (Homo sapiens, UniProt P41597) (assay: CCR2 Membrane Binding Assay (SPA radio-ligand binding, 125I-rhMCP-1)). Details: membranes from Ba/F3 cells transfected with human CCR2; 0.03 nM 125I-rhMCP-1; 4 h room temperature.
T1 construct: expressed in transfected cells; host or cells: Ba/F3 cells (membrane preparation)
Method: The radio-ligand binding assay was done using scintillation proximity assay (SPA) technology. Briefly, membranes (1 μg per assay point) from Ba/F3 cells transfected with human CCR2, and wheat germ agglutinin-coated SPA beads (80 μg per point; Amersham, Arlington Heights, Ill.), were pre-incubated for 30 min at room temperature in CCR2 buffer (50 mM HEPES (pH=7.4), 10 mM MgCl2, 10 mM NaCl, 1 mM CaCL2, 0.1% BSA, 10 μg/ml Saponin). At this point pre-bound SPA bead, membrane complex was incubated at room temperature for 4 h with varying concentrations of punitive CCR2 antagonists (in 1% DMSO, final) and 0.03 nM ^125I-rhMCP-1 in CCR2Buffer (S.A. 2200 Ci/mmol, PerkinElmer Life and Analytical Science, Boston, Mass.; NEX332). Binding competition was measured using a 1450 Microbeta Trilux counter (Wallac, Gaithersburg, Md.). Binding constants (IC50 and slope) were calculated using GraphPad Prism software (GraphPad Software, Inc., La Jolla Calif.).

T1 sequence (P41597 whole entry): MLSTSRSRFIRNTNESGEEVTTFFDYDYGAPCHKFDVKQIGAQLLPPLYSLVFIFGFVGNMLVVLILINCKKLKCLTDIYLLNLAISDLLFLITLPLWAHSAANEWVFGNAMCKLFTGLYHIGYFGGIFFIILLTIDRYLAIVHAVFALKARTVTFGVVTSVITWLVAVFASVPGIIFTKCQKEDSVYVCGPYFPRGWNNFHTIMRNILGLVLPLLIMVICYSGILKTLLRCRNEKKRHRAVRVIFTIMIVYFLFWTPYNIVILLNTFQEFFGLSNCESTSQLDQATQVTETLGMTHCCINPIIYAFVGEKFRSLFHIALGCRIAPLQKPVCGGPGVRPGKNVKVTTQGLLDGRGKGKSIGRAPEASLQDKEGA

SMILES	pIC50
O=C(CNC(=O)[C@H]1[C@@H]2CN([C@H]3CC[C@@H](c4ncccn4)CC3)C[C@@H]21)Nc1cccc(C(F)(F)F)c1 [Compound 90]	8.12
O=C(CNC(=O)[C@H]1[C@@H]2CN([C@H]3CC[C@@H](c4ccc(-c5ccccc5)cc4)CC3)C[C@@H]21)Nc1cccc(C(F)(F)F)c1 [Compound 156]	8.13
O=C(CNC(=O)[C@H]1[C@@H]2CN([C@H]3CC[C@@H](c4cccnc4)CC3)C[C@@H]21)Nc1cccc(C(F)(F)F)c1 [Compound 82]	8.40
COc1ccc([C@H]2CC[C@@H](N3C[C@@H]4[C@H](C3)[C@H]4C(=O)NCC(=O)Nc3cccc(C(F)(F)F)c3)CC2)cn1 [Compound 132]	8.47
O=C(CNC(=O)[C@H]1[C@@H]2CN([C@H]3CC[C@@H](c4ccccc4)OC3)C[C@@H]21)Nc1cccc(C(F)(F)F)c1 [Compound 89]	8.44
O=C(CNC(=O)[C@H]1[C@@H]2CN([C@H]3CC[C@@H](c4ccc(F)cc4)CC3)C[C@@H]21)Nc1cccc(C(F)(F)F)c1 [Compound 119]	8.21
COc1ccc(C2(O)CCC(N3C[C@@H]4[C@H](C3)[C@H]4C(=O)NCC(=O)Nc3cccc(C(F)(F)F)c3)CC2)cn1 (stereo partly drawn) [Compound 147]	8.35
Cn1ncc2cc([C@H]3CC[C@@H](N4C[C@@H]5[C@H](C4)[C@H]5C(=O)NCC(=O)Nc4cccc(C(F)(F)F)c4)CC3)ccc21 [Compound 150]	8.17
O=C(CNC(=O)[C@H]1[C@@H]2CN(C3CCC(O)(c4ccc5c(c4)OCO5)CC3)C[C@@H]21)Nc1cccc(C(F)(F)F)c1 (stereo partly drawn) [Compound 152]	8.00
O=C(CNC(=O)[C@H]1[C@@H]2CN([C@H]3CC[C@@H](c4ccncc4)CC3)C[C@@H]21)Nc1cccc(C(F)(F)F)c1 [Compound 83]	7.96
COc1ccc([C@H]2CC[C@@H](N3C[C@@H]4[C@H](C3)[C@H]4C(=O)NCC(=O)Nc3cccc(C(F)(F)F)c3)CC2)cc1 [Compound 130]	8.40

Same assay, conditions: membranes from Ba/F3 cells transfected with human CCR2; 0.03 nM 125I-rhMCP-1; class symbols

SMILES	pIC50	IC50 (nM)
O=C([C@H]1[C@@H]2CN([C@H]3CC[C@@H](c4ccccc4)CC3)C[C@@H]21)N1CCC(c2ccc(C(F)(F)F)cc2)C1 (stereo partly drawn) [Compound 73]	6.70 to 7.29	–
O=C(NCCc1cccc(C(F)(F)F)c1)C1[C@H]2CN(C3CCCC3)C[C@@H]12 (stereo partly drawn) [Compound 46]	6.15 to 6.70	–
O=C(CNC(=O)[C@H]1[C@@H]2CN([C@H]3CC[C@@H](c4cnc(O)nc4O)CC3)C[C@@H]21)Nc1cccc(C(F)(F)F)c1 [Compound 134]	6.70 to 7.29	–
O=C([C@H]1[C@@H]2CN([C@H]3CC[C@@H](c4ccccc4)CC3)C[C@@H]21)N1CCN(c2cccc(C(F)(F)F)c2)CC1 [Compound 108]	6.15 to 6.70	–
COc1ccc(CC2CCCC(N3C[C@@H]4[C@H](C3)[C@H]4C(=O)NCC(=O)Nc3cccc(C(F)(F)F)c3)C2)cc1 (stereo partly drawn) [Compound 144]	6.70 to 7.29	–
O=C(CNC(=O)[C@H]1[C@@H]2CN(C3CCCCC3)C[C@@H]21)Nc1cccc(C(F)(F)F)c1 [Compound 2]	6.70 to 7.29	–
O=C(NCc1cccc(C(F)(F)F)c1)[C@H]1[C@@H]2CN([C@H]3CC[C@@H](c4ccccc4)CC3)C[C@@H]21 [Compound 42]	6.70 to 7.29	–
O=C([C@H]1[C@@H]2CN([C@H]3CC[C@@H](c4ccccc4)CC3)C[C@@H]21)N1CC(Oc2ccccc2)C1 [Compound 25]	–	D (compounds with IC50 values between 701 nM and 110 nM are designated as D class compounds)
CC(C)N1C[C@@H]2[C@H](C1)[C@H]2C(=O)NCC(=O)Nc1cccc(C(F)(F)F)c1 [Compound 93]	6.70 to 7.29	–
Cn1cc([C@H]2CC[C@H](N3C[C@@H]4[C@H](C3)[C@H]4C(=O)NCC(=O)Nc3cccc(C(F)(F)F)c3)CC2)cn1 [Compound 96]	–	D (compounds with IC50 values between 701 nM and 110 nM are designated as D class compounds)
O=C(CNC(=O)[C@H]1[C@@H]2CN([C@H]3CC[C@@H](Nc4ccc(F)c(F)c4)CC3)C[C@@H]21)Nc1cccc(C(F)(F)F)c1 [Compound 148]	> 7.30	–
CCC(C)N1C[C@@H]2[C@H](C1)[C@H]2C(=O)NCC(=O)Nc1cccc(C(F)(F)F)c1 (stereo partly drawn) [Compound 9]	6.70 to 7.29	–
O=C([C@H]1[C@@H]2CN([C@H]3CC[C@@H](c4ccccc4)CC3)C[C@@H]21)N1CCC(Nc2nccc(C(F)(F)F)n2)CC1 [Compound 128]	6.15 to 6.70	–
O=C(NCCc1cc(F)cc(C(F)(F)F)c1)[C@H]1[C@@H]2CN([C@H]3CC[C@@H](c4ccccc4)CC3)C[C@@H]21 [Compound 67]	6.70 to 7.29	–
O=C(NCCc1cccc(C(F)(F)F)c1)[C@H]1[C@@H]2CN([C@H]3CC[C@@H](c4ccccc4)CC3)C[C@@H]21 [Compound 48]	> 7.30	–
CC(N1C[C@@H]2[C@H](C1)[C@H]2C(=O)NCC(=O)Nc1cccc(C(F)(F)F)c1)C1(C)CC1 (stereo partly drawn) [Compound 20]	–	D (compounds with IC50 values between 701 nM and 110 nM are designated as D class compounds)
O=C(CNC(=O)[C@H]1[C@@H]2CN([C@H]3CC[C@H](NC(=O)OCc4ccccc4)CC3)C[C@@H]21)Nc1cccc(C(F)(F)F)c1 [Compound 155]	6.15 to 6.70	–
O=C(CNC(=O)[C@H]1[C@@H]2CN(C3CCC(O)(c4nccs4)CC3)C[C@@H]21)Nc1cccc(C(F)(F)F)c1 (stereo partly drawn) [Compound 122]	6.70 to 7.29	–
O=C(NCC1(c2cccc(C(F)(F)F)c2)CC1)[C@H]1[C@@H]2CN([C@H]3CC[C@@H](c4ccccc4)CC3)C[C@@H]21 [Compound 74]	6.15 to 6.70	–
O=C(CNC(=O)[C@H]1[C@@H]2CN(C3CC=C(c4ccc5c(c4)OCO5)CC3)C[C@@H]21)Nc1cccc(C(F)(F)F)c1 (stereo partly drawn) [Compound 139]	6.15 to 6.70	–

SMILES	pIC50	IC50 (nM)
O=C([C@H]1[C@@H]2CN([C@H]3CC[C@@H](c4ccccc4)CC3)C[C@@H]21)N1CC(Oc2ccc(Cl)c(Cl)c2)C1 [Compound 77]	6.70 to 7.29	–
O=C(CNC(=O)[C@H]1[C@@H]2CN(C3CCCCCC3)C[C@@H]21)Nc1cccc(C(F)(F)F)c1 [Compound 33]	6.15 to 6.70	–
CC(CCc1ccccc1)N1C[C@@H]2[C@H](C1)[C@H]2C(=O)NCC(=O)Nc1cccc(C(F)(F)F)c1 (stereo partly drawn) [Compound 50]	–	D (compounds with IC50 values between 701 nM and 110 nM are designated as D class compounds)
O=C(CNC(=O)[C@H]1[C@@H]2CN(C3CC(COCc4ccccc4)C3)C[C@@H]21)Nc1cccc(C(F)(F)F)c1 (stereo partly drawn) [Compound 116]	6.15 to 6.70	–
CC=C1CCC(N2C[C@@H]3[C@H](C2)[C@H]3C(=O)NCC(=O)Nc2cccc(C(F)(F)F)c2)CC1 (stereo partly drawn) [Compound 37]	–	D (compounds with IC50 values between 701 nM and 110 nM are designated as D class compounds)
O=C(CNC(=O)[C@H]1[C@@H]2CN(C3CCC(O)(c4cncs4)CC3)C[C@@H]21)Nc1cccc(C(F)(F)F)c1 (stereo partly drawn) [Compound 121]	> 7.30	–
O=C(CNC(=O)[C@H]1[C@@H]2CN(C3CCC3)C[C@@H]21)Nc1cccc(C(F)(F)F)c1 [Compound 110]	6.15 to 6.70	–
O=C(CNC(=O)[C@H]1[C@@H]2CN(C3CC(c4ccccc4)C3)C[C@@H]21)Nc1cccc(C(F)(F)F)c1 (stereo partly drawn) [Compound 49]	6.70 to 7.29	–
O=C(CNC(=O)[C@H]1[C@@H]2CN([C@H]3CC[C@H](c4ccccn4)CC3)C[C@@H]21)Nc1cccc(C(F)(F)F)c1 [Compound 84]	6.15 to 6.70	–
O=C(CNC(=O)[C@H]1[C@@H]2CN([C@H]3CC[C@H](c4ccc(OCc5ccccc5)cc4)CC3)C[C@@H]21)Nc1cccc(C(F)(F)F)c1 [Compound 161]	6.15 to 6.70	–
O=C1CCC(N2C[C@@H]3[C@H](C2)[C@H]3C(=O)NCC(=O)Nc2cccc(C(F)(F)F)c2)CC1 [Compound 29]	–	D (compounds with IC50 values between 701 nM and 110 nM are designated as D class compounds)
COC(=O)[C@H]1CC[C@H](N2C[C@@H]3[C@H](C2)[C@H]3C(=O)NCC(=O)Nc2cccc(C(F)(F)F)c2)CC1 [Compound 58]	6.15 to 6.70	–
O=C(CNC(=O)[C@H]1[C@@H]2CN([C@H]3CC[C@@H](NC(=O)c4ccccc4)CC3)C[C@@H]21)Nc1cccc(C(F)(F)F)c1 [Compound 141]	> 7.30	–
O=C(NC1Cc2ccc(Br)cc2C1)[C@H]1[C@@H]2CN([C@H]3CC[C@@H](c4ccccc4)CC3)C[C@@H]21 (stereo partly drawn) [Compound 68]	6.70 to 7.29	–
N#Cc1cccc(C2CCN(C(=O)[C@H]3[C@@H]4CN([C@H]5CC[C@@H](c6ccccc6)CC5)C[C@@H]43)C2)c1 (stereo partly drawn) [Compound 40]	6.70 to 7.29	–
O=C(NCCc1ccccc1)[C@H]1[C@@H]2CN([C@H]3CC[C@@H](c4ccccc4)CC3)C[C@@H]21 [Compound 10]	–	D (compounds with IC50 values between 701 nM and 110 nM are designated as D class compounds)
O=C(CNC(=O)[C@H]1[C@@H]2CN([C@H]3CC[C@H](c4ccncc4)CC3)C[C@@H]21)Nc1cccc(C(F)(F)F)c1 [Compound 85]	6.15 to 6.70	–
O=C([C@H]1[C@@H]2CN([C@H]3CC[C@@H](c4ccccc4)CC3)C[C@@H]21)N1CCC(c2cccc(C(F)(F)F)c2)C1 (stereo partly drawn) [Compound 70]	> 7.30	–
COc1ccc(CC2CCCC(N3C[C@@H]4[C@H](C3)[C@H]4C(=O)NCC(=O)Nc3cccc(C(F)(F)F)c3)C2)cc1 (stereo partly drawn) [Compound 146]	6.15 to 6.70	–
O=C(CNC(=O)[C@H]1[C@@H]2CN(C3CCCC3)C[C@@H]21)Nc1cccc(C(F)(F)F)c1 [Compound 11]	6.70 to 7.29	–
